Measured values reported in ChEMBL document CHEMBL1201862, “PubChem BioAssay data set” (2004).
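How tested: cells in 96-well plates exposed to compound for 48 hours at five concentrations. Abbreviation: GI50, concentration required for 50% inhibition of growth.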 Active and inactive are the calls of the source. Rule as the data show it: active = GI50 up to about 1.1 µM and inactive = higher.

Key:
Experiment in all cases: inhibition of tumour cell growth, NCI panel, 48 h
[1] = tested on: ACHN
[2] = tested on: HT-29
[3] = tested on: MCF7
[4] = tested on: MDA-MB-435
[5] = tested on: CCRF-CEM
[6] = tested on: A498
[7] = tested on: MDA-MB-231
[8] = tested on: NCI-H460
[9] = tested on: 786-0
[10] = tested on: UO-31
[11] = tested on: SK-OV-3
[12] = tested on: KM12
[13] = tested on: RXF 393
[14] = tested on: TK-10
[15] = tested on: DU-145
[16] = tested on: HCT-116
[17] = tested on: IGROV-1
[18] = tested on: SK-MEL-28
[19] = tested on: SNB-19
[20] = tested on: EKVX
[21] = tested on: SF-295
[22] = tested on: HOP-92
[23] = tested on: MDA-N
[24] = tested on: HOP-62
[25] = tested on: PC-3
[26] = tested on: OVCAR-8
[27] = tested on: BT-549
[28] = tested on: SK-MEL-2
[29] = tested on: M14
[30] = tested on: UACC-257
[31] = tested on: HCT-15
[32] = tested on: SF-268
[33] = tested on: NCI/ADR-RES
[34] = tested on: LOX IMVI
[35] = tested on: T47D
[36] = tested on: SN12C
[37] = tested on: HL-60
[38] = tested on: MOLT-4
[39] = tested on: Malme-3M
[40] = tested on: SNB-75
[41] = tested on: RPMI-8226
[42] = tested on: CAKI-1
[43] = tested on: NCI-H522
[44] = tested on: OVCAR-3
[45] = tested on: SW-620
[46] = tested on: COLO 205
[47] = tested on: U-251
[48] = tested on: OVCAR-4
[49] = tested on: A549
[50] = tested on: SK-MEL-5
[51] = tested on: SF-539
[52] = tested on: NCI-H23
[53] = tested on: SR
[54] = tested on: K562
[55] = tested on: HCC 2998
[56] = tested on: OVCAR-5
[57] = tested on: UACC-62
[58] = tested on: NCI-H226
[59] = tested on: Hs-578T

With `Cc1c(F)c(N)c2c(=O)cc(-c3ccc(NC(=O)[C@@H](N)CCCCN)c(F)c3)oc2c1F` the GI50 [1] was 16200 nM (inactive), the GI50 [2] was 14300 nM (inactive) and the GI50 [3] was 39.9 nM (active). For the same compound, the GI50 [4] was 8650 nM (inactive), the GI50 [5] was 5070 nM (inactive) and the GI50 [6] was 57 nM (active). The GI50 [7] was 16300 nM (inactive), the GI50 [8] was 132 nM (active) and the GI50 [9] was 7480 nM (inactive). For the same compound, the GI50 [10] was 14800 nM (inactive), the GI50 [11] was 15300 nM (inactive) and the GI50 [12] was 8950 nM (inactive). The GI50 [13] was 16100 nM (inactive), the GI50 [14] was 239 nM (active) and the GI50 [15] was 14500 nM (inactive). For the same compound, the GI50 [16] was 5160 nM (inactive), the GI50 [17] was 53.2 nM (active) and the GI50 [18] was 18500 nM (inactive). The GI50 [19] was 27000 nM (inactive), the GI50 [20] was 11000 nM (inactive) and the GI50 [21] was 13200 nM (inactive). For the same compound, the GI50 [22] was 26700 nM (inactive), the GI50 [23] was 12500 nM (inactive) and the GI50 [24] was 12300 nM (inactive). The GI50 [25] was 16600 nM (inactive), the GI50 [26] was 13700 nM (inactive) and the GI50 [27] was 23600 nM (inactive). The GI50 [28] was 17500 nM (inactive), the GI50 [29] was 20700 nM (inactive) and the GI50 [30] was 209 nM (active). The GI50 [31] was 14000 nM, the GI50 [32] was 12800 nM (inactive) and the GI50 [33] was 20400 nM (inactive). The GI50 [34] was 16300 nM (inactive), the GI50 [35] was 94.2 nM (active) and the GI50 [36] was 14900 nM (inactive).

With `CC(=O)O[C@H]1C(=O)[C@]2(C)[C@@H](OC(=O)OCCC(O)CO)C[C@H]3OC[C@@]3(OC(C)=O)[C@H]2[C@H](OC(=O)c2ccccc2)[C@]2(O)C[C@H](OC(=O)[C@H](O)[C@@H](NC(=O)c3ccccc3)c3ccccc3)C(C)=C1C2(C)C` (stereo partly drawn) the GI50 [37] was < 10 nM (active), the GI50 [38] was < 10.6 nM (active) and the GI50 [1] was 3480 nM (inactive). For the same compound, the GI50 [2] was < 10 nM (active), the GI50 [3] was < 10 nM (active) and the GI50 [4] was < 10 nM (active). The GI50 [5] was < 10 nM (active), the GI50 [39] was < 10 nM (active) and the GI50 [6] was 783 nM (active). For the same compound, the GI50 [40] was < 10 nM (active), the GI50 [41] was < 10 nM (active) and the GI50 [7] was 28.8 nM (active). For the same compound, the GI50 [8] was < 12.6 nM (active), the GI50 [9] was 80 nM (active) and the GI50 [10] was 8610 nM (inactive). For the same compound, the GI50 [11] was 30.7 nM (active), the GI50 [12] was < 10 nM (active) and the GI50 [42] was 2260 nM (inactive). For the same compound, the GI50 [43] was < 10 nM (active), the GI50 [13] was 213 nM (active) and the GI50 [14] was 2400 nM (inactive). The GI50 [15] was 12.5 nM (active), the GI50 [16] was < 10 nM (active) and the GI50 [17] was < 14.2 nM (active). The GI50 [44] was < 10 nM (active), the GI50 [19] was 44.5 nM (active) and the GI50 [20] was 121 nM (active). For the same compound, the GI50 [45] was < 25.1 nM (active), the GI50 [46] was < 10 nM (active) and the GI50 [47] was 13.5 nM (active). For the same compound, the GI50 [48] was 13900 nM (inactive), the GI50 [49] was 35 nM (active) and the GI50 [50] was 17.2 nM (active). The GI50 [51] was < 10 nM (active), the GI50 [52] was < 12.7 nM (active) and the GI50 [21] was 193 nM (active). The GI50 [53] was < 10 nM (active), the GI50 [22] was 8630 nM (inactive) and the GI50 [23] was < 10 nM (active). For the same compound, the GI50 [24] was 96.4 nM (active), the GI50 [25] was < 12.8 nM (active) and the GI50 [54] was < 10 nM (active). For the same compound, the GI50 [55] was < 10 nM (active), the GI50 [26] was 46.3 nM (active) and the GI50 [27] was 66.7 nM (active). The GI50 [56] was 30.3 nM (active), the GI50 [28] was 26.5 nM (active) and the GI50 [29] was 46.1 nM (active). For the same compound, the GI50 [57] was 10.8 nM (active), the GI50 [58] was < 22.8 nM (active) and the GI50 [30] was 37 nM (active). For the same compound, the GI50 [31] was 2140 nM, the GI50 [32] was < 17.1 nM (active) and the GI50 [33] was 15200 nM (inactive). The GI50 [34] was < 10 nM (active), the GI50 [36] was < 16.6 nM (active) and the GI50 [59] was < 10 nM (active).
